Laboratory results taken from patent publication US11364239B2 (priority 2020, dated 2022).
“Also recorded” adds a separate entry of the source.

Experiments:
rats = settings: rat, in vivo
[1] = test system: Aflatoxin B1-exposed rats; settings: rat, in vivo
[2] = test system: Cyp enzymes (Cyp2b2, Cyp1a1, Cyp3a18, Cyp3a9, Cyp2d2, Cyp2c7, Cyp2a3, Cyp2d1, Cyp2c24, Cyp4a2); settings: in vivo
[3] = test system: Aflatoxin B1-exposed rats; settings: rat, in vivo; remark: listed apart in the source

Aflatoxin B1
food intake (rats): comparable food intake | hepatocellular BrdU staining (rats): variable | liver histopathology (rats): abnormal liver histopathology | liver hydroxyproline (rats): significant increase | serum ALT (rats): reduced Serum ALT | serum transaminases (rats): trend towards increased serum transaminases | tissue hydroxyproline (rats): mild elevation | weight gain (rats): decreased weight gain

CCOC(=O)[C@H](CCc1ccccc1)N[C@@H](C)C(=O)N1Cc2ccccc2C[C@H]1C(=O)O [Quinapril]
beneficial effects on Aflatoxin B1-induced growth impairment or hepatotoxicity ([1]; po): did not show beneficial effects

Cyp3cide
reduction of Aflatoxin B1-induced liver injury ([1]; po, 50 mg/kg): did not reduce

c1cn2cc(-c3ccc4cn[nH]c4c3)nc(Nc3ccc(N4CCOCC4)cc3)c2n1 [Entospletinib]
mitigating Aflatoxin B1 induced toxicity or injury ([1]; po): only mildly efficacious

CC(C)CN(C[C@@H](O)[C@H](Cc1ccccc1)NC(=O)O[C@H]1CCOC1)S(=O)(=O)c1ccc(N)cc1 [Amprenavir, [(3S)-oxolan-3-yl] N-[(2S,3R)-4-[(4-aminophenyl)sulfonyl-(2-methylpropyl)amino]-3-hydroxy-1-phenylbutan-2-yl]carbamate]
final weights (indexed weight) [1]: no pairwise comparisons showed significant differences | liver fibrosis, as assessed by Sirius Red staining [1]: decreased liver fibrosis | liver hydroxyproline content [1]: trend towards decreased liver hydroxyproline content | liver hydroxyproline levels (a measure of liver fibrosis) [1]: trends towards decreased hydroxyproline | overall Aflatoxin B1 mitigation activity (liver histopathology: hepatocellular BrdU staining, serum transaminases, hydroxyproline levels) [1]: excellent mitigation activity; also recorded: most efficacious drug | serum ALT levels [1]: significantly lower | serum transaminases [1]: lower serum transaminases | survival [1]: improved survival | expression of Cyp enzymes in rat livers (transcriptomics) [2]: greatly upregulated | effect on Aflatoxin B1-induced reduction in weight gain [3]: no effect | liver hydroxyproline [3]: trends towards reducing | morphometric measurement of liver fibrosis [3]: trends towards reducing | overall effects on Aflatoxin B1-induced liver injury [3]: significant or trends towards significant beneficial effects | serum ALT [3]: reduced serum ALT
